Data: patent US20230226103A1, “COMPOSITION FOR TREATING AND/OR PREVENTING COGNITIVE IMPAIRMENT OR DEMENTIA” (MiZ Company Limited, priority 2018, published 2023)
“And” between values parts separate entries of the source, which are not always exact repeats. Identical values can stand only once. Like-named read-outs stand apart in the source and are kept apart here.

Columns and labels:
[1] = system: patients with mild to moderate dementia of the Alzheimer's type; conditions: 10 mg donepezil, 24-week (6-month) administration; rating score 0 to 70 points; cited from earlier work
[2] = system: cognitive functions of women aged 65 years or more
Protocol: (§1) Elderly women living in a community (n=13, 68.0±3.0 years old, body weight: 66.9±10.3 kg, height: 161.1±5.8 cm) volunteered for participants for the present open-label preliminary experiment (registered in ClinicalTrials.gov, NCT02830854). Individuals with a serious disease or a mental disease had been excluded as they met the exclusion criteria. This study was conducted according to the guideline of the Declaration of Helsinki, and the local ethics committee approved the protocol of the present clinical study. The participants all gave informed consent, and were each asked to keep their usual lifestyle and take meals as usual during the study. […] Mini Mental State Examination (MMSE) scores before the initiation of the study and 4 weeks thereafter were used to evaluate the therapeutic effect. In addition, assessment of other cognitive ability markers and evaluation of side effects were conducted based on the results before the initiation of the study and 4 weeks thereafter. The cognitive functions of the participants were evaluated by using the MMSE and the Alzheimer's Disease Assessment Scale-Cognitive subscale (ADAS-Cog). The MMSE is a 30-point questionnaire widely used in clinical practice to determine the degree of cognitive impairment of an elderly individual. The ADAS-Cog is a method, consisting of 11 tasks, of assessing cognitive abilities, and determines memory impairment, language impairment, praxis impairment, attention deficits, and other cognitive abilities to test for dementia. In addition to the assessments, the participants were asked to report adverse events during the study through self-assessment or an open-ended questionnaire on side effects (e.g., queasy feeling, headache). Statistical significance was determined by using a Wilcoxon signed-rank test (before the initiation of the study vs. 4 weeks thereafter). If p≤0.05 was satisfied, the result was considered statistically significant.

[3] = 4% hydrogen gas 15 minutes per day over 4 weeks
Protocol: as §1

Compound	Reduction of ADAS-Cog score from the score at initiation of administration [1]	ADAS-Cog Language reproduction test After 4 weeks ([2]; 4% H2 inhaled 15 minutes per day over 4 weeks, baseline 3.6 ± 1.0)	ADAS-Cog Language recognition After 4 weeks ([2]; 4% H2 inhaled 15 minutes per day over 4 weeks, baseline 4.2 ± 3.2)	ADAS-Cog Language recognition % change ([2]; after 4 weeks vs baseline)	ADAS-Cog Language reproduction test % change ([2]; after 4 weeks vs baseline)	MMSE Total score % change ([2]; after 4 weeks vs baseline, 4% H2 inhaled 15 minutes per day)	Number of women whose MMSE scores increased ([2]; among 13 women, after administration)	Improvement in ADAS-Cog converted from MMSE (Improvement in MMSE×2.33) ([2]; conversion formula BMC Neurol. 2002, 2:6)	Other 9 items in ADAS-Cog scoring, score ([2]; correctly executed in both tests (baseline and after 4 weeks))	Cognitive functions (result in words) ([2]; elderly women with mild cognitive impairment, 4% hydrogen gas 15 minutes per day over 4 weeks)	Improvement in the MMSE ([2]; inhalation of hydrogen gas for a month)	Adverse events / side effects associated with inhalation [3]	Adverse events / side effects associated with inhalation ([3]; listed as hydrogen gas)
COc1cc2c(cc1OC)C(=O)C(CC1CCN(Cc3ccccc3)CC1)C2 (stereo not shown) [donepezil]	approximately 1.4 points	–	–	–	–	–	–	–	–	–	–	–	–
[HH] [H2, hydrogen gas]	–	8.1 ± 1.2	1.1 ± 1.0	−40.1%	140.0%	13.7% and 14.2%	12	8.16 points	0	improved to normal levels	3.50 points	no sign of side effects	no adverse event
